The record followed here is US20110003805A1, “CONCOMITANT DRUG” (TAKEDA PHARMACEUTICAL COMPANY LIMITED, priority 2008, published 2011).

The test system of the experiment is TS (thymidine) gene expression in human breast cancer cell line BT-474. As to the kind of experiment: Measurement of expression amount of TS (thymidine) by addition of compound A, TaqMan. The format is cell-based. The settings on record: BT-474 cells, 100 nmol/L, two days after addition, GAPDH as internal standard (FIG. 4).

Structures are written as SMILES.

Description: Human breast cancer cell line BT-474 (ATCC (American Type Culture Collection) catalog No. HTB-20, Lasfargues EY, In Vitro 15:723-729(1979)), which is a passage cultured HER2 high expressing cell, was treated with trypsin and suspended in RPMI-1640 medium (GibcoInvitrogen) containing 10% bovine fetus serum (GibcoInvitrogen). The cell density of the cell suspension was measured by cell counter Sysmex CDA500, and the cell density was adjusted to 5×10^4 cell/mL using the aforementioned medium. The suspension was dispensed to each well of a 6 well multi-well culture plate (Corning) by 2 mL, and cultured overnight at 37° C. under 5% CO2. […] Using this cDNA as a template, the TS expression amount was measured using TaqMan Gene Expression Assays (Applied Biosystems). […] Ct method (Applied Biosystems) with GAPDH as an internal standard (FIG. 4).

In the case of `CC(C)(O)CC(=O)NCCn1ccc2ncnc(Nc3ccc(Oc4cccc(C(F)(F)F)c4)c(Cl)c3)c21` [compound A, N-{2-[4-({3-chloro-4-[3-(trifluoromethyl)phenoxy]phenyl}amino)-5H-pyrrolo[3,2-d]pyrimidin-5-yl]ethyl}-3-hydroxy-3-methylbutaneamide], the TS expression amount entry was “remarkably decreased”.
